Activity calls are given as the source filed them. The calls are words filed in the database; no cut-off is given here. *1 amine or outer side, *2 acyl side, *3 side chain or, on linkers, in order; H or OH if unused. Bridges are numbered along the chain shown (N, C = ends). [ ]: non-standard residue; d: D form. X1 = CCCCCCCCCCCCCCCC(=O)NCCCCCCNC(=O)C(CCCCNC(=O)CCN1C(=O)CC([*:1])C1=O)NC(=O)CCN1C(=O)CC([*:2])C1=O; AEEA = NCCOCCOCC(=O)O; Aib = CC(C)(N)C(=O)O
What was measured:
Mus musculus [1] = experiment: Hypoglycemic activity in db/db mouse assessed as decrease in glucose excursion at 25 nmol/kg, ip dosed 30 mins before test and measured up to 120 mins by OGTT method; assay type: functional, organism-based; details: time 150.0 min
[2] = molecular target: Glucagon-like peptide 1 receptor (Homo sapiens, UniProt P43220); experiment: Agonist activity at human GLP-1R expressed in HEK293 cells assessed as stimulation of cAMP accumulation incubated for 20 mins; assay type: functional, cell-based
Sequence of Glucagon-like peptide 1 receptor (P43220 whole entry): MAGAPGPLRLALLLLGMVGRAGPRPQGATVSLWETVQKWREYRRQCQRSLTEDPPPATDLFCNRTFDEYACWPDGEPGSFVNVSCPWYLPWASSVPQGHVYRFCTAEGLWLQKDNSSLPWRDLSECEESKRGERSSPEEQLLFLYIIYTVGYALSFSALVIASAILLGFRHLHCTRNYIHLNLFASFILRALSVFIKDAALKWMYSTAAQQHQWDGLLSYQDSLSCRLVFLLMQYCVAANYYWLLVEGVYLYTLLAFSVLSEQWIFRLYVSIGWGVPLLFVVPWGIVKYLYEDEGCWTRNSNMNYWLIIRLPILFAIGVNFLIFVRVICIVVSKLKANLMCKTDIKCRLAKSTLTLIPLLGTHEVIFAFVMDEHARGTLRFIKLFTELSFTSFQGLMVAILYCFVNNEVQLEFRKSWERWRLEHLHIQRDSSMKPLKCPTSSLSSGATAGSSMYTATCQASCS

[3] = molecular target: T1, Cholecystokinin receptor type A (Homo sapiens, UniProt P32238); experiment: Agonist activity at human CCK-1R expressed in HEK293 cells assessed as stimulation of ERK phosphorylation incubated for 5 mins; assay type: cell-based
T1 sequence (P32238 whole entry): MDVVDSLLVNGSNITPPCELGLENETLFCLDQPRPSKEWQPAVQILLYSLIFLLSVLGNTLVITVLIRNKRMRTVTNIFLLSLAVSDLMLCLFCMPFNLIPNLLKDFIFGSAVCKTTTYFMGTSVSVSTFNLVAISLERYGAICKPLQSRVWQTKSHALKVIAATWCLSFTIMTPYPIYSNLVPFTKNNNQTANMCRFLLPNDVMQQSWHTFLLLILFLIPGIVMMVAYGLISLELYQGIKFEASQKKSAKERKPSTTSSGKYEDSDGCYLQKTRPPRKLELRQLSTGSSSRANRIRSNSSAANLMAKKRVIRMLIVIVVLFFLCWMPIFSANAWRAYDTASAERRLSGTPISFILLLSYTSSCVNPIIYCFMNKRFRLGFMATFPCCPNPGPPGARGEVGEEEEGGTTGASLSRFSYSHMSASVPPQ

[4] = molecular target: T2, Gastrin/cholecystokinin type B receptor (Homo sapiens, UniProt P32239); experiment: Agonist activity at human CCK-2R expressed in HEK293 cells assessed as stimulation of ERK phosphorylation incubated for 5 mins; assay type: cell-based
T2 sequence (P32239 whole entry): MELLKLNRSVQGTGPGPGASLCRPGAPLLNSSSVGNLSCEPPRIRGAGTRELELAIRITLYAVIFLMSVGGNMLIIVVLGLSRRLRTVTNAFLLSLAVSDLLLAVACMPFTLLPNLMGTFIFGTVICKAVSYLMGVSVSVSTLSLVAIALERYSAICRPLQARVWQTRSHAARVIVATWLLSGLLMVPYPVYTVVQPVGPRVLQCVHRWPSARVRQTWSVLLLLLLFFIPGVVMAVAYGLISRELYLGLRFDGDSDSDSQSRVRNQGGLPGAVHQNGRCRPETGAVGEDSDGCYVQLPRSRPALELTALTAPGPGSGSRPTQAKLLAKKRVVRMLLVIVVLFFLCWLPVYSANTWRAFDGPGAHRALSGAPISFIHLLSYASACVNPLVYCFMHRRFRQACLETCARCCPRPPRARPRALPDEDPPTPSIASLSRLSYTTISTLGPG

Mus musculus [5] = experiment: Hypoglycemic activity in db/db mouse assessed as improvement in glucose tolerance at 25 nmol/kg, ip dosed 30 mins before test and measured up to 120 mins by OGTT method; assay type: functional, organism-based; details: time 150.0 min
Mus musculus [6] = experiment: Insulinotropic activity in db/db mouse assessed as improvement in plasma insulin level at 25 nmol/kg, ip dosed 30 mins before test and measured up to 60 mins by OGTT method; assay type: functional, organism-based; details: time 90.0 min
[7] = Half life in ICR mouse at 50 nmol/kg, sc up to 24 hrs by LC-MS/MS analysis; assay type: ADME, organism-based; details: in vivo
[8] = Tmax in ICR mouse at 50 nmol/kg, sc up to 24 hrs by LC-MS/MS analysis; assay type: ADME, organism-based; details: in vivo
[9] = AUC (0 to infinity) in ICR mouse at 50 nmol/kg, sc up to 24 hrs by LC-MS/MS analysis; assay type: ADME, organism-based; set-up: route subcutaneous, dose 50 nmol/kg, time <=24; details: in vivo
Mus musculus [10] = experiment: Hypoglycemic activity in non-fasted db/db mouse assessed as improvement in glucose tolerance at dosed intraperitoneally 30 mins before test and measured up to 120 mins by OGTT method; assay type: functional, organism-based; details: time 150.0 min
Mus musculus [11] = experiment: […] activity in non-fasted db/db mouse assessed as improvement in glucose tolerance at dosed intraperitoneally 30 mins before test and measured up to 120 mins by OGTT method; assay type: functional, organism-based; details: time 150.0 min
Mus musculus [12] = experiment: Inhibition of liquid-phase gastric emptying in 6 hrs fasted ICR mouse assessed as reduction in blood acetaminophen concentration at 25 nmol/kg, ip dosed 30 mins before acetaminophen dosing by LC-MS/MS analysis; assay type: functional, organism-based
Mus musculus [13] = experiment: Inhibition of solid-phase gastric emptying in fasted ICR mouse at 25 nmol/kg, ip measured after 4 hrs by LC-MS/MS analysis; assay type: functional, organism-based
[14] = Toxicity in Sprague-Dawley rat assessed as induction of kaolin intake at 25 nmol/kg, ip after 24 hrs by Kaolin consumption test; assay type: organism-based; details: in vivo
Rattus norvegicus [15] = experiment: Reduction of food intake in Sprague-Dawley rat at 25 nmol/kg, ip after 24 hrs; assay type: functional, organism-based
[16] = Toxicity in Sprague-Dawley rat assessed as induction of kaolin intake at 25 nmol/kg, sc BID for 10 days by Kaolin consumption test; assay type: organism-based; details: in vivo, 240 h, time 10 day
Rattus norvegicus [17] = experiment: Reduction of food intake in Sprague-Dawley rat at 25 nmol/kg, sc BID for 12 days; assay type: functional, organism-based; details: time 12.0 day
INS1 [18] = experiment: Toxicity in rat INS1 cells assessed as reduction cell viability up to 1000 nM after 24 hrs by MTT assay; assay type: cell-based; details: ins1, 24 h
INS1 [19] = experiment: Protection against glucotoxicity in rat INS1 cells assessed as recovery of cell viability after 24 hrs in presence of glucotoxicity media by MTT assay; assay type: functional, cell-based
[20] = Hepatotoxicity in ICR mouse assessed as effect on aspartate aminotransferase level at 1000 nmol/kg, sc BID for 14 days; assay type: toxicity, organism-based; details: in vivo, 336 h, time 14 day
[21] = Hepatotoxicity in ICR mouse assessed as effect on alanine aminotransferase level at 1000 nmol/kg, sc BID for 14 days; assay type: toxicity, organism-based; details: in vivo, 336 h, time 14 day
[22] = Renal toxicity in ICR mouse assessed as effect on serum creatinine level at 1000 nmol/kg, sc BID for 14 days; assay type: organism-based; details: in vivo, 336 h, time 14 day
[23] = Renal toxicity in ICR mouse assessed as effect on blood urea nitrogen level at 1000 nmol/kg, sc BID for 14 days; assay type: organism-based; details: in vivo, 336 h, time 14 day
Mus musculus [24] = experiment: Reduction in body weight in C57BL/6 mouse model of high-fat diet induced obesity at 25 nmol/kg, sc BID for 21 days relative to control; assay type: functional; set-up: scale not given: the % may be the effect or the level left; details: time 21 day
Mus musculus [25] = experiment: Reduction in body fat content in C57BL/6 mouse model of high-fat diet induced obesity at 25 nmol/kg, sc BID for 21 days relative to control; assay type: functional; set-up: scale not given: the % may be the effect or the level left; details: time 21 day
Mus musculus [26] = experiment: Reduction in fasting blood glucose in C57BL/6 mouse model of high-fat diet induced obesity at 25 nmol/kg, sc BID for 21 days relative to control; assay type: functional, organism-based; details: time 21.0 day
Mus musculus [27] = experiment: Improvement in glucose tolerance in C57BL/6 mouse model of high-fat diet induced obesity at 25 nmol/kg, sc BID for 21 days relative to control; assay type: functional, organism-based; details: time 21.0 day
Mus musculus [28] = experiment: Reduction in serum cholesterol in C57BL/6 mouse model of high-fat diet induced obesity at 25 nmol/kg, sc BID for 21 days relative to control; assay type: functional, organism-based; details: time 21.0 day
Mus musculus [29] = experiment: Reduction in serum triglyceride in C57BL/6 mouse model of high-fat diet induced obesity at 25 nmol/kg, sc BID for 21 days relative to control; assay type: functional, organism-based; details: time 21.0 day
Mus musculus [30] = experiment: Reduction in cumulated food intake in db/db mouse at 25 nmol/kg, sc BID for 21 days relative to control; assay type: functional, organism-based; details: time 21.0 day
Mus musculus [31] = experiment: Reduction in body weight gain in db/db mouse at 25 nmol/kg, sc BID for 21 days relative to control; assay type: functional, organism-based; details: time 21.0 day
Mus musculus [32] = experiment: Improvement in fasted blood glucose level in db/db mouse at 25 nmol/kg, sc BID for 21 days relative to control; assay type: functional, organism-based; details: time 21.0 day
Mus musculus [33] = experiment: Improvement in HbA1c level in db/db mouse at 25 nmol/kg, sc BID for 21 days relative to control; assay type: functional, organism-based; details: time 21.0 day
Mus musculus [34] = experiment: Improvement in pancreatic beta cell area level in db/db mouse at 25 nmol/kg, sc BID for 21 days relative to control; assay type: functional, organism-based; details: time 21.0 day
Mus musculus [35] = experiment: Inhibition of pancreatic non-beta cell area (alpha-cell) level in db/db mouse at 25 nmol/kg, sc BID for 21 days relative to control; assay type: functional, organism-based; details: time 21.0 day
Mus musculus [36] = experiment: Improvement in pancreatic islet area and number level in db/db mouse at 25 nmol/kg, sc BID for 21 days relative to control; assay type: functional, organism-based; details: time 21.0 day
Mus musculus [37] = experiment: Improvement in insulin content in db/db mouse at 25 nmol/kg, sc BID for 21 days relative to control; assay type: functional, organism-based; details: time 21.0 day
Mus musculus [38] = experiment: Improvement in glucose tolerance in db/db mouse at 25 nmol/kg, sc BID for 6 weeks followed by another 6 week saline treatment relative to control; assay type: functional, organism-based
Mus musculus [39] = experiment: Improvement in fasted blood glucose level in db/db mouse at 25 nmol/kg, sc BID for 6 weeks followed by another 6 week saline treatment relative to control; assay type: functional, organism-based
Mus musculus [40] = experiment: Reduction in Hb1Ac level in db/db mouse at 25 nmol/kg, sc BID for 6 weeks followed by another 6 week saline treatment relative to control; assay type: functional, organism-based

H-H[Aib]EGTYTNDVTEYLEEEAAKCFIEWLICGKPSSGAPPPS[AEEA][AEEA]YGWLDF-NH2 (linker 21-28 via X1)
Activity (Mus musculus [1]): Active
EC50 [2]: 0.041 nM
EC50 [3]: > 1000 nM
EC50 [4]: 8.8 nM
Activity (Mus musculus [5]): Active
Activity (Mus musculus [6]): Active
half-life [7]: 4.7 h
Tmax [8]: 4 h
AUC(0-inf) [9]: 19600 ng·h/mL
Activity (Mus musculus [10]): Dose-dependent effect
Activity (Mus musculus [11]): Dose-dependent effect
inhibition (Mus musculus [12]): Active
inhibition (Mus musculus [13]): Active
Activity [14]: Non-Toxic
Activity (Rattus norvegicus [15]): Active
Activity [16]: Non-Toxic
Activity (Rattus norvegicus [17]): Active
Activity (INS1 [18]): Non-Toxic
Activity (INS1 [19]): Dose-dependent effect
Activity [20]: Non-Toxic
Activity [21]: Non-Toxic
Activity [22]: Non-Toxic
Activity [23]: Non-Toxic
Activity (Mus musculus [24]): 24%
Activity (Mus musculus [25]): 30.4%
Activity (Mus musculus [26]): Active
Activity (Mus musculus [27]): Active
Activity (Mus musculus [28]): Active
Activity (Mus musculus [29]): Active
Activity (Mus musculus [30]): Active
Activity (Mus musculus [31]): Active
Activity (Mus musculus [32]): Active
Activity (Mus musculus [33]): Active
Activity (Mus musculus [34]): Active
inhibition (Mus musculus [35]): Active
Activity (Mus musculus [36]): Active
Activity (Mus musculus [37]): Active
Activity (Mus musculus [38]): Active
Activity (Mus musculus [39]): Active
Activity (Mus musculus [40]): Active
